# Entries after “also recorded” stand apart in the source; their conditions may differ. Where two headings read alike, the source gives them in different places.
# Key:
# [1] = test system: PC-12 cells; experiment: Neurite outgrowth of PC-12 cells cultured in compound-conditioned 1321N1 medium; type: cell-based, rat; conditions: 1321N1 medium conditioned with compound at 30 μM for 48 hours, PC-12 3 days; for neurite outgrowth of PC-12 cells: vs DMSO control
# Protocol: (§1) The 1321N1 human astrocytoma cells were cultured in Dulbecco's modified Eagles's medium (DMEM) supplemented with 2 mM L-Glutamine and 10% fetal bovine serum (FBS). PC-12 cells were grown in F-12K medium supplemented with 15% horse serum and 2.5% FBS. For compound treatment, 1321N1 cells were incubated with compounds 2 and 8 at 30 μM for 48 hours in DMEM medium. The resulting conditioned media from the 1321N1 cells were used to culture PC-12 cell for induction of PC-12 neurite outgrowth. After 3 days incubation, PC-12 cells were washed with phosphate-buffered saline (PBS) and fixed with 4% paraformaldeyde. Neurites were observed under a phase-contrast ECLIPSE TE2000-S Nikon microscope.
# The differentiation of PC-12 cells was scored as follows: cells without neurites were scored 0; cells with neurites as long as one cell body diameter were scored 1; cells with neurites 2-3 times longer than their cell body diameter were scored 2; and cells with neurites that were extremely long or forming a network were scored 3. The mean of differentiation scores were obtained from 200 cells (4 wells) under the phase-contrast microscope. Data are expressed as means±S.E.M (standard error of mean). Values represent the Means±S.E.M. for four wells.
# [2] = test system: 1321N1 human astroglial cells; conditions: cited from earlier work
# [3] = test system: rat pheochromocytoma cells (PC-12); conditions: cited from earlier work
# [4] = test system: 1321N1 human glial cells; experiment: Biosynthesis and secretion of neurotrophic factors from 1321N1 cells treated with compound; type: cell-based; conditions: 30 μM, 48 hours
# Protocol: as §1
SMILES,neurite outgrowth of PC-12 cells compared with compound 2 or purified NGF (50 ng/mL) [1],neurite outgrowth of PC-12 cells [1],production and excretion of nerve growth factor (NGF) [2],production and excretion of nerve growth factor (NGF) ([2]; listed as scabronine G),neuronal differentiation of PC-12 cells [3],biosynthesis and secretion of neurotrophic factors [4]
COC(=O)[C@]12CCC(C(C)C)=C1[C@H]1CCC(C=O)=CC(=O)[C@]1(C)CC2 [Compound 8],greater activity as evidenced by increased neurite length; also recorded: comparable to those produced by direct exposure of PC-12 cells to purified NGF; also recorded: greater potency than compound 2,significantly induced neurite outgrowth,–,–,–,–
"CC(C)C1=C2[C@H]3CC=C(C=O)CC(=O)[C@]3(C)CC[C@@]2(C(=O)O)CC1 [Compound 1, Scabronine G]",–,–,induce the production and excretion of nerve growth factor (NGF),induces the production and excretion of nerve growth factor (NGF),dramatic neuronal differentiation,–
"COC(=O)[C@]12CCC(C(C)C)=C1[C@H]1CC=C(C=O)CC(=O)[C@]1(C)CC2 [Compound 2, Scabronine G Methyl Ester]",comparable to those produced by direct exposure of PC-12 cells to purified NGF; also recorded: same degree of neurite outgrowth as that of 50 ng/mL of NGF,significant neurite outgrowth; also recorded: significantly induced neurite outgrowth,–,–,dramatic neuronal differentiation,effectively enhanced the biosynthesis and secretion of neurotrophic factors
